Data published in US20250009819A1, “NOVEL PROBIOTICS AND USE THEREOF” (PBLBIOLAB CO., LTD., priority 2021, published 2025).

Experiments:
Assay type in all cases: in vivo, C57BL/6 male mice
gut microbiota = assay: Gut microbiota analysis in animals with ampicillin-induced gut microbiota imbalance (FIG. 1); conditions: feces, ampicillin-treated mice, result in words
Procedure: First, DNA from feces was isolated using the QIAamp DNA stool mini kit (Qiagen, Germany), pyrosequencing was performed by amplifying barcoded primers (V4 region of the bacterial 16S rRNA gene) to generate amplicons, and 16S rDNA was analyzed by Illumina iSeq 100 (San Diego, CA) to analyze occupancy.
(§1) C57BL/6 male mice (5 weeks old, 19-21 g) were divided (6 mice in each group) and acclimatized to the laboratory for 1 week. To induce intestinal and brain diseases, the mice were orally administered with ampicillin (AP, 100 mg/kg, dissolved in physiological saline) for 3 days. Meanwhile, the normal group was orally administered with 0.1 ml of physiological saline. […] The day following the conclusion of sample administration, the experimental animals were sacrificed, and samples from the brain hippocampus, colon, and spleen were collected. In the Hippocampus, inflammatory indicators, such as IFN-γ, TNF-α, and IL-10, were measured using ELISA. In the colon, intestinal length and inflammatory indicators, such as IFN-γ, TNF-α, and IL-10, were measured. In the spleen, Th1 cells and Treg cells were measured by FACS (Fluorescence-Activated Cell Sorting), and in feces, endotoxin (LPS) and gut microbial communities were measured.

healthy animal = assay: Healthy animal: spleen parameters; conditions: healthy mice, 1×10^9 CFU/mouse orally once a day for 5 days; for Foxp3 (fold change) / Tbet (fold change) / Tbet/Foxp3: spleen qPCR; for IFN-γ/IL-10 / IL-10 / Interferon (IFN)-γ / NK cell cytoxicity (%) / Phagocytosis (%) / TNF-a/IL-10 / TNF-α: spleen
Procedure: (§2) Hippocampus, colon, and spleen tissues were homogenized by adding 1 ml of RIPA buffer (Gibco) containing protease inhibitor cocktail and centrifuged at 4° C., 13000 rpm for 15 min to obtain supernatant. Indicators of this supernatant were measured using an ELISA kit (Ebioscience).
(§3) mRNA was isolated from spleen tissue using the RNA Isolation Kit: RNeasy Mini Kit (QIAGEN), converted to cDNA, and qPCR was performed to measure the expression rates of Tbet, Foxp3, and glyceraldehyde 3-phosphate dehydrogenase (GAPDH). The reaction product was first treated at 95° C. for 30 seconds, followed by 38 cycles of 5 seconds at 95° C. and 30 seconds at 72° C. for analysis.
C57BL/6 male mice (5 weeks old, 19-21 g) were divided (6 mice in each group) and acclimatized to the laboratory for 1 week. The mice were orally administered once a day for 5 days with lactic acid bacteria as a test sample suspended in physiological saline solution at a concentration of 1×10^9 CFU per mouse (NK210 alone (LR): 1×10^9 CFU/mouse, NK219 alone (BL): 1×10^9 CFU/mouse, combined (210+219): 210, 8×10^8 CFU/mouse and 219, 2×10^8 CFU/mouse). […] The day following the conclusion of sample administration, the experimental animals were sacrificed, and samples from the brain hippocampus, colon, and spleen were collected. In the Hippocampus, inflammatory indicators, such as IFN-γ, TNF-α, and IL-10, were measured using ELISA. In the colon, intestinal length and inflammatory indicators, such as IFN-γ, TNF-α, and IL-10, were measured. In the spleen, Th1 cells and Treg cells were measured by FACS (Fluorescence-Activated Cell Sorting).

[1] = test system: animals with LPS-induced cognitive impairment; assay: Animals with LPS-induced cognitive impairment: improvement effect in spleen; conditions: LPS-treated mice, 1×10^9 CFU/mouse or sulfasalazine 50 mg/kg once a day for 5 days; for Foxp3 (fold change) / Tbet (fold change) / Tbet/Foxp3: spleen qPCR; for IFN-γ/IL-10 / IL-10 / Interferon (IFN)-γ / NK cell cytoxicity (%) / Phagocytosis (%) / TNF-α / TNF-α/IL-10: spleen
Procedure: as §2, §3
C57BL/6 male mice (5 weeks old, 19-21 g) were divided (6 mice in each group) and acclimatized to the laboratory for 1 week. To induce intestinal and brain diseases, mice were intraperitoneally administered Escherichia coli-derived LPS (10 μg/kg) once daily for 5 days. […] Experimental animals in the normal group were orally administered with a physiological saline solution, which was used to suspend lactic acid bacteria. The day following the conclusion of sample administration, the experimental animals were sacrificed, and samples from the brain hippocampus, colon, and spleen were collected. In the Hippocampus, inflammatory indicators, such as IFN-γ, TNF-α, and IL-10, were measured using ELISA. In the colon, intestinal length and inflammatory indicators, such as IFN-γ, TNF-α, and IL-10, were measured. In the spleen, Th1 cells and Treg cells were measured by FACS (Fluorescence-Activated Cell Sorting).

[2] = test system: animals with antibiotic-induced gut microbiota imbalance; assay: Animals with antibiotic (ampicillin)-induced gut microbiota imbalance: colitis improvement (colon); conditions: ampicillin (AP)-treated mice, 1×10^9 CFU/mouse orally once a day for 5 days
Procedure: To 100 mg of colon tissue, 200 μl of 10 mM potassium phosphate buffer (pH 7.0) containing 0.5% hexadecyl trimethyl ammonium bromide was added and homogenized. Then, the supernatant was obtained by centrifugation for 10 minutes at 4° C. and 10,000 g. A volume of 50 μl of the supernatant was added to 0.95 mk of reaction solution (containing 1.6 mM tetramethyl benzidine and 0.1 mM H2O2), reacted at 37° C., and absorbance was monitored over time at 650 nm.
as §2, §1

With Bifidobacterium longum NK219 the “imbalance in the beta diversity, Proteobacteria, and Bacteroidetes of gut microbiota” value (gut microbiota) was “improved to a balanced form”, the “Foxp3 (fold change)” value (healthy animal) was 1.05 fold change and the “Tbet (fold change)” value (healthy animal) was 1.80 fold change. It also gave a Tbet/Foxp3 (healthy animal) of 1.86, an IFN-γ/IL-10 (healthy animal) of 1.35 and an IL-10 (healthy animal) of 9.29 pg/mg. The “Interferon (IFN)-γ” value (healthy animal) was 12.56 pg/mg, the “NK cell cytoxicity (%)” value (healthy animal) was 8.52% and the “Phagocytosis (%)” value (healthy animal) was 64.57%. For the same substance, the TNF-a/IL-10 (healthy animal) was 0.38, the TNF-α (healthy animal) was 3.49 pg/mg and the “Foxp3 (fold change)” value [1] was 1.32 fold change. The “Tbet (fold change)” value [1] was 1.27 fold change, the Tbet/Foxp3 [1] was 1.05 and the IFN-γ/IL-10 [1] was 1.32. For the same substance, the IL-10 [1] was 8.71 pg/mg, the “Interferon (IFN)-γ” value [1] was 11.29 pg/mg and the “NK cell cytoxicity (%)” value [1] was 6.93%. For the same substance, the “Phagocytosis (%)” value [1] was 34.55%, the TNF-α [1] was 4.00 pg/mg and the TNF-α/IL-10 [1] was 0.47. For the same substance, the “Colon (cm)” value [2] was 5.45 cm, the IFN-γ/IL-10 [2] was 0.26 and the IL-10 [2] was 26.75 pg/mg. For the same substance, the “Interferon (IFN)-γ” value [2] was 5.84 pg/mg, the MPO activity [2] was 14.76 μUnit/mg and the TNF-a/IL-10 [2] was 1.16. It also gave a TNF-α [2] of 28.27 pg/mg.

For Lactobacillus rhamnosus NK210, the “imbalance in the beta diversity, Proteobacteria, and Bacteroidetes of gut microbiota” value (gut microbiota) was “improved to a balanced form”, the “Foxp3 (fold change)” value (healthy animal) was 1.05 fold change and the “Tbet (fold change)” value (healthy animal) was 1.41 fold change. It also gave a Tbet/Foxp3 (healthy animal) of 1.45, an IFN-γ/IL-10 (healthy animal) of 1.38 and an IL-10 (healthy animal) of 9.45 pg/mg. For the same substance, the “Interferon (IFN)-γ” value (healthy animal) was 13.02 pg/mg, the “NK cell cytoxicity (%)” value (healthy animal) was 6.65% and the “Phagocytosis (%)” value (healthy animal) was 50.03%. For the same substance, the TNF-a/IL-10 (healthy animal) was 0.37, the TNF-α (healthy animal) was 3.48 pg/mg and the “Foxp3 (fold change)” value [1] was 1.07 fold change. For the same substance, the “Tbet (fold change)” value [1] was 1.58 fold change, the Tbet/Foxp3 [1] was 1.55 and the IFN-γ/IL-10 [1] was 1.15. The IL-10 [1] was 10.49 pg/mg, the “Interferon (IFN)-γ” value [1] was 11.92 pg/mg and the “NK cell cytoxicity (%)” value [1] was 7.78%. The “Phagocytosis (%)” value [1] was 36.01%, the TNF-α [1] was 4.00 pg/mg and the TNF-α/IL-10 [1] was 0.38. The “Colon (cm)” value [2] was 5.28 cm, the IFN-γ/IL-10 [2] was 0.31 and the IL-10 [2] was 21.31 pg/mg. For the same substance, the “Interferon (IFN)-γ” value [2] was 5.94 pg/mg, the MPO activity [2] was 11.60 μUnit/mg and the TNF-a/IL-10 [2] was 1.43. The TNF-α [2] was 22.86 pg/mg.
